US20080132484A1, “Method for Identifying Inhibitors Using a Homology Model of Polo-Like Kinase 1” (CYCLACEL LIMITED, priority 2003, published 2008)
“Also recorded” adds a separate entry of the source. Where two headings read alike, the source gives them in different places.

What was measured:
[1] = target: T1, Human recombinant CKII (Homo sapiens, UniProt P68400); assay: Casein Kinase II (CKII) assay; format: biochemical; details: at concentrations up to 0.2 mM
T1 construct: purchased New England Biolabs
Experimental: Reaction was initiated by the addition of 100 μM ATP and 0.25 μCi of [γ-^32P]-ATP. The reaction mixture was incubated at 30° C. for 15 minutes, then stopped with 75 mM aq orthophosphoric acid, transferred onto a 96-well P81 filter plate (Whatman), dried, and the extent of peptide phosphorylation was assessed by scintillation counting using a Packard TopCount plate reader.

[2] = target: T2, PLK1 (Homo sapiens, UniProt P53350); assay: Kinetic analysis of PLK1 inhibition (ATP dependence); format: biochemical
T2 construct: The PLK1 ORF was cloned into pSSP1 such that the resulting PLK1 translation product would have a 19 amino acid N-terminal tag; made in house; host or cells: Sf9 insect cells (baculovirus)

[3] = target: T2, PLK1; assay: PLK1 kinase assay (CDC25C phosphorylation, [γ-32P]-ATP); format: biochemical; details: for inhibition of PLK1 function: at concentrations up to 0.2 mM; for inhibition of PLK1: even at concentrations as high as 1 mM
Experimental: PLK1 kinase activity was assayed using human CDC25C phosphatase as a substrate. The assays were carried out using 96-well microtitre plates by incubating CDC25C (2 μg/well) with 1 μg/well of purified human recombinant PLK1 and varying concentrations of the candidate compound in a total volume of […] of 20 mM Tris/HCl buffer pH 7.5, supplemented with 25 mM β-glycerophosphate, 5 mM EGTA, 1 mM DTT, and 1 mM NaVO3. Reaction was initiated by the addition of 100 μM ATP and 0.5 μCi of [γ-^32P]-ATP. The reaction mixture was incubated at 30° C. for 1 h, then stopped with 75 mM aq orthophosphoric acid, transferred onto a 96-well P81 filter plate (Whatman), dried, and the extent of CDC25C phosphorylation was assessed by scintillation counting using a Packard TopCount plate reader.
Adenosine, N-ethyhnaleimide, iodoacetamide, and thimerosal were obtained from Sigma Chemical Co. 2′-Thioadenosine was obtained from Calbiochem. […] All compounds were made up as 10 mM stocks in neat dimethylsulfoxide and fresh dilutions to the desired concentrations were made in assay buffer prior to the assay. The candidate compounds were incubated with the enzyme in the kinase assay buffer for the duration of the assay, usually 1 hour at 30° C. […] For each compound duplicate samples, one of which contained dithiothreitol (DTT) at 1 mM final concentration, were assayed.

[4] = target: PKA (Homo sapiens, UniProt P17612); details: Table 14, published values; cited from earlier work
[5] = target: CDK2 (Homo sapiens, UniProt P24941); assay: CDK2 inhibition; format: biochemical; details: Table 12
[6] = in the absence of dithiothreitol, read-out: IC50 (μM) − DTT
[7] = in the presence of dithiothreitol (1 mM), read-out: IC50 (μM) + DTT
[8] = Table 14, read-out: Plk1 (IC50)
[9] = read-out: IC50 with respect to PLK1
[10] = Kinase inhibition, flavonoid compounds, read-out: Plk1 IC50

T2 sequence (P53350 whole entry): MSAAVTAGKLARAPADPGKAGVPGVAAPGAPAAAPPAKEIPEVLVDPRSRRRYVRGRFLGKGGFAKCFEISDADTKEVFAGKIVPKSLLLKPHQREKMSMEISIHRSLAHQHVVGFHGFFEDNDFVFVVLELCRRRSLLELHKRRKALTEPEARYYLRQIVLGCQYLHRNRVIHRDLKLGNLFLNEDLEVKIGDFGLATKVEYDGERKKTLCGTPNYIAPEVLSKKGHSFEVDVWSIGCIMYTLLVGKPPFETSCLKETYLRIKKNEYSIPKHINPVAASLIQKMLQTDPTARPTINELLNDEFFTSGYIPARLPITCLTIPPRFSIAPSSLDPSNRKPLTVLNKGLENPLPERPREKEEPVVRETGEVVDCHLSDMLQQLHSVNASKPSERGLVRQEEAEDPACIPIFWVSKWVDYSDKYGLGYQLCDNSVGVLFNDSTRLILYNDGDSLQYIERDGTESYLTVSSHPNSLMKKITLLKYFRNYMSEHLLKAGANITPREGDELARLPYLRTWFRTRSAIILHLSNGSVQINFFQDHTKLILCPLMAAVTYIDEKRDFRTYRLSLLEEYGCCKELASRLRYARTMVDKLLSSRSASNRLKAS
T1 sequence (P68400 whole entry): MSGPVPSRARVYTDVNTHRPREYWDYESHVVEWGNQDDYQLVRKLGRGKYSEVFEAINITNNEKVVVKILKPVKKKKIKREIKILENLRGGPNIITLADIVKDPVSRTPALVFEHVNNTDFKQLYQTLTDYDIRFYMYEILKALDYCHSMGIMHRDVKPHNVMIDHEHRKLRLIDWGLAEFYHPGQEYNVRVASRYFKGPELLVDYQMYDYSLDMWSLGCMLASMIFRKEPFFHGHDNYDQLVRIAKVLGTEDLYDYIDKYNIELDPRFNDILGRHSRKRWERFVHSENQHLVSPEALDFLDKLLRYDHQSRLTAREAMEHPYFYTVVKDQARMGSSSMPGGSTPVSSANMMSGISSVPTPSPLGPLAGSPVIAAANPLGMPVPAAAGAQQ
T1 sequence (P67870 whole entry partner): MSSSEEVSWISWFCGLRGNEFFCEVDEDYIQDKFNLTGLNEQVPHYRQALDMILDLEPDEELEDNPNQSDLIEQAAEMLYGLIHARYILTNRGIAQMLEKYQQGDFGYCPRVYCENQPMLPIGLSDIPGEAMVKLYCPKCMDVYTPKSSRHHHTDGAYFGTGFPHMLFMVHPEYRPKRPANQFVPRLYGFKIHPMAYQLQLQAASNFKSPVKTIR

For Nc1ncnc2c1ncn2[C@@H]1O[C@H](CO)[C@@H](O)[C@H]1S [2′-Thioadenosine], the “inhibition of CKII enzymatic activity” value [1] was “No significant inhibition”, the “mode of PLK1 inhibition with respect to ATP” value (“mode of PLK1 inhibition” for short) [2] was “none of these compounds were classical competitive inhibitors” and the “inhibition of PLK1 function” value [3] was “did”. The IC50 [3, 6] was 120 µM and the IC50 [3, 7] was greater than 200 µM.

In the case of Cc1ncc2ccccc2c1C#N [4-Cyano-3-methylisoquinoline], the IC50 [4] is listed as 0.03 µM, the IC50 [3, 8] is listed as greater than 500 µM and the “inhibition of PLK1” value [3] is listed as “none of these compounds caused any inhibition”.

With CNc1nc(C)c(-c2ccnc(Nc3ccc(O)cc3)n2)s1 [4-[4-(4-methyl-2-methylamino-thiazol-5-yl)-pyrimidin-2-ylamino]-phenol] the IC50 [3, 9] was 4 µM.

In the case of Nc1ncnc2c1ncn2[C@@H]1O[C@H](CS)[C@@H](O)[C@H]1O [5′-Thioadenosine, 5′-Deoxy-5′-thioadenosine], the “inhibition of CKII enzymatic activity” value [1] is reported as “No significant inhibition”, the “mode of PLK1 inhibition” value ([2]; listed as 5-′thioadenosine) is reported as “none of these compounds were classical competitive inhibitors” and the “mode of PLK1 inhibition” value ([2]; listed as 5′-thioadenosine) is reported as “dependent on ATP concentration but not competitive with ATP”. For the same compound, the “potency relative to 2′-thioadenosine on PLK1” value [3] was “about 3 fold”, the “inhibition of PLK1 function” value [3] was “did” and the IC50 [3, 6] was 39 µM. It also gave an IC50 [3, 7] greater than 200 µM.

For Nc1ncnc2c1ncn2[C@@H]1O[C@H](CO)[C@@H](O)[C@H]1O [Adenosine], the “inhibition of CKII enzymatic activity” value [1] was “No significant inhibition”, the “mode of PLK1 inhibition” value [2] was “none of these compounds were classical competitive inhibitors” and the “inhibition of PLK1 function” value [3] was “did not inhibit”. For the same compound, the IC50 [3, 6] was greater than 200 µM and the IC50 [3, 7] was greater than 200 µM.

For O=C(N[C@@H]1CNCCC[C@H]1OC(=O)c1cc(O)c(C(=O)c2c(O)cccc2C(=O)O)c(O)c1)c1ccc(O)cc1 [Balanol], the “PLK1 inhibition, result in words” value [3] was “no detectable inhibition” and the IC50 [3, 8] was greater than 200 µM.

In the case of O=c1c(O)c(-c2ccccc2O)oc2cc(O)cc(O)c12 [Datescefin], the IC50 [3, 10] is reported as greater than 100 µM.

In the case of O=c1c(O)c(-c2ccccc2O)oc2cc(O)cc(O)c12 [Datescetin], the “PLK1 inhibition, result in words” value [3] is reported as “inactive”.

In the case of O=c1c(O)c(-c2ccccc2)oc2cc(O)cc(O)c12 [Galangin], the IC50 [3, 10] is reported as greater than 100 µM.

In the case of Cl.NCCNS(=O)(=O)c1cccc2c(Cl)cccc12 [Inhibitor A3], the IC50 [4] is listed as 11 µM, the IC50 [3, 8] is listed as greater than 500 µM and the “inhibition of PLK1” value [3] is listed as “none of these compounds caused any inhibition”.

With O=S(=O)(NCCNC/C=C/c1ccc(Br)cc1)c1cccc2cnccc12 [Inhibitor H89] the “inhibition of PLK1” value [3] was “none of these compounds caused any inhibition”.

In the case of NC(=O)CI [Iodoacetamide], the “inhibition of CKII enzymatic activity” value [1] is reported as “No significant inhibition”, the “PLK1 inhibition, result in words” value [3] is reported as “to some extent” and the IC50 ([3]; IC50 (μM) + DTT, in the presence of dithiothreitol (1 mM)) is reported as greater than 200 µM. For the same compound, the IC50 ([3]; IC50 (μM) − DTT, in the absence of dithiothreitol) was 83 µM.

In the case of CCCCCCOC(=O)[C@]1(O)C[C@@H]2O[C@@]1(C)n1c3ccccc3c3c4c(c5c6ccccc6n2c5c31)C(=O)NC4 [KT5720], the IC50 [4] is listed as 0.056 µM, the IC50 [3, 8] is listed as greater than 500 µM and the “inhibition of PLK1” value [3] is listed as “none of these compounds caused any inhibition”.

Compound O=c1c(O)c(-c2ccc(O)cc2)oc2cc(O)cc(O)c12 [Kaempferol] has an IC50 [3, 10] greater than 100 µM.

O=c1cc(-c2ccc(O)c(O)c2)oc2cc(O)cc(O)c12 [Luteolin] gave an IC50 [3, 10] greater than 100 µM.

With O=c1c(O)c(-c2cc(O)c(O)c(O)c2)oc2cc(O)cc(O)c12 [Myricetin] the “PLK1 inhibition, result in words” value [3] was “lack of inhibition”, the IC50 [3, 10] was greater than 100 µM and the IC50 [3, 9] was greater than 100 µM.

For CCN1C(=O)C=CC1=O [N-ethylmaleimide], the “inhibition of CKII enzymatic activity” value [1] was “No significant inhibition”, the “PLK1 inhibition, result in words” value [3] was “to some extent” and the IC50 [3, 6] was 55 µM. The IC50 [3, 7] was greater than 200 µM.

For C[CH2][Hg][S]c1ccccc1C(=O)[O-].[Na+] [Thimerosal], the “inhibition of CKII enzymatic activity” value [1] was “No significant inhibition”, the “mode of PLK1 inhibition” value [2] was “none of these compounds were classical competitive inhibitors” and the “PLK1 inhibition, result in words” value [3] was “to some extent”. It also gave an IC50 [3, 6] of 22 µM and an IC50 [3, 7] greater than 200 µM.

In the case of COC[C@H]1OC(=O)c2coc3c2[C@@]1(C)C1=C(C3=O)[C@@H]2CCC(=O)[C@@]2(C)C[C@H]1OC(C)=O [Wortmannin], the IC50 [5] is reported as greater than 10 µM, the “mode of PLK1 inhibition” value [2] is reported as “totally independent of ATP; also recorded: completely ATP-independent” and the “PLK1 inhibition, result in words” value [3] is reported as “very potent inhibitor”.

With O=c1c(-c2ccc(O)cc2)coc2cc(O)ccc12 [daidzein] the “PLK1 inhibition, result in words” value [3] was “inactivity” and the IC50 [3, 10] was greater than 100 µM.

For O=c1c(O)c(-c2ccc(O)c(O)c2)oc2cc(O)ccc12 [fisetin], the “PLK1 inhibition, result in words” value [3] was “inactivity” and the IC50 [3, 10] was greater than 100 µM.

With O=c1c(O)c(-c2ccccc2)oc2cc(O)cc(O)c12 [gangolin] the “PLK1 inhibition, result in words” value [3] was “inactivity”.

With COc1ccc(-c2oc3cc(O)cc(O)c3c(=O)c2O)cc1 [kaempferide] the “PLK1 inhibition, result in words” value [3] was “inactivity” and the IC50 [3, 10] was greater than 100 µM.

In the case of O=c1c(O)c(-c2ccc(O)cc2)oc2cc(O)cc(O)c12 [kaepmpferol], the “PLK1 inhibition, result in words” value [3] is reported as “lack of inhibition”.

With O=c1c(O)c(-c2ccc(O)cc2O)oc2cc(O)cc(O)c12 [morin hydrate] the “PLK1 inhibition, result in words” value [3] was “the most potent in the flavonoid series”, the IC50 [3, 10] was 12.6 ± 1.4 µM and the IC50 [3, 9] was 12 µM.

For O=c1c(O)c(-c2cc(O)c(O)c(O)c2)oc2cc(O)ccc12 [robinetin], the “PLK1 inhibition, result in words” value [3] was “weak inhibition” and the IC50 [3, 10] was 60 µM.

For Purvalanol A, the IC50 [4] is listed as greater than 100 µM, the “PLK1 inhibition, result in words” value [3] is listed as “moderate inhibition” and the IC50 ([3]; Table 12, read-out: Plk1 IC50) is listed as 5 µM. The IC50 [3, 8] was 10 µM.
